From article PMC7316778 (Nature Communications, 2020)
pIC50: −log10 of the molar value. Where “and” joins values, the source holds several entries; their conditions need not be identical. Equal entries are not always repeated. Where two headings read alike, the source gives them in different places.

How the values were obtained:
GAK = target: T1, GAK (Homo sapiens, UniProt O14976); experiment: SelectScreen kinase assay
T1 sequence (O14976 1-1311): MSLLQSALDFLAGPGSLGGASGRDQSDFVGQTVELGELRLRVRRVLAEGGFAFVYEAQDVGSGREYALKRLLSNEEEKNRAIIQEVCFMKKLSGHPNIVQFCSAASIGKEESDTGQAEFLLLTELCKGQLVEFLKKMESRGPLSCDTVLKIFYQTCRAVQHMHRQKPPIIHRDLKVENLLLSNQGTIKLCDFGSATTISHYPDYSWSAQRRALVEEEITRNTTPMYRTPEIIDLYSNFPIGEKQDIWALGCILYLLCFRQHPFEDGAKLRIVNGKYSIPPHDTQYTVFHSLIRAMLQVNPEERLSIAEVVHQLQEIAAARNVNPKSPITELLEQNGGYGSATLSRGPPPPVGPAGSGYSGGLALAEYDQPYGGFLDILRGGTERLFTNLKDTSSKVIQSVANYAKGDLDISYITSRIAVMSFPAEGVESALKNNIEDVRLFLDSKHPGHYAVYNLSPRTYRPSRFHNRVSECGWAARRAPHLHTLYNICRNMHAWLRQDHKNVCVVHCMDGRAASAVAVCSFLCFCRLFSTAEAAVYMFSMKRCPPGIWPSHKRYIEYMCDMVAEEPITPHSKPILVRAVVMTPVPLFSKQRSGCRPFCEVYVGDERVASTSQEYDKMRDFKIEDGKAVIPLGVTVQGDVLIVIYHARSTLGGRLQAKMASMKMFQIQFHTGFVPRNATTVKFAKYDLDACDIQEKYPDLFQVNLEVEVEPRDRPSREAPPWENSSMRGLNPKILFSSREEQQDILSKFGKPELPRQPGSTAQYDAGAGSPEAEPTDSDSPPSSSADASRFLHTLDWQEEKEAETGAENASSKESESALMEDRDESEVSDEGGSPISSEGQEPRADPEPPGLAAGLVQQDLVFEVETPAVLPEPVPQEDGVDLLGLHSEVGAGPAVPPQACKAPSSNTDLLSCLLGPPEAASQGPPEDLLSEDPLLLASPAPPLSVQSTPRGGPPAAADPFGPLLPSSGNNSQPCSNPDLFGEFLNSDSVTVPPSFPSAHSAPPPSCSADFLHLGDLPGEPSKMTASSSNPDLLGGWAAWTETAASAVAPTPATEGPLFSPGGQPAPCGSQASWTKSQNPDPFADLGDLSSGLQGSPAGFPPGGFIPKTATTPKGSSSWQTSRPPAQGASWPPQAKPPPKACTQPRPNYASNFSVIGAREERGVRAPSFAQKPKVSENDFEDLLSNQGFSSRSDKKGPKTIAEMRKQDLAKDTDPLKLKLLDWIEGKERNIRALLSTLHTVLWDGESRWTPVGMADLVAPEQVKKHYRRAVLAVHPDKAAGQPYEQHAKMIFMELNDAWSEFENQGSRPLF
Procedure: (§1) Selectivity profiling assays were performed by the Invitrogen SelectScreen™ Services. […] The concentration of ATP was selected to be equal to the KM, unless indicated otherwise.

PIK3C2B (PI3K-C2 beta) = PIK3C2B (PI3K-C2 beta) (Homo sapiens, UniProt O00750); experiment: SelectScreen kinase assay
Chain of PIK3C2B (PI3K-C2 beta) (O00750 whole entry): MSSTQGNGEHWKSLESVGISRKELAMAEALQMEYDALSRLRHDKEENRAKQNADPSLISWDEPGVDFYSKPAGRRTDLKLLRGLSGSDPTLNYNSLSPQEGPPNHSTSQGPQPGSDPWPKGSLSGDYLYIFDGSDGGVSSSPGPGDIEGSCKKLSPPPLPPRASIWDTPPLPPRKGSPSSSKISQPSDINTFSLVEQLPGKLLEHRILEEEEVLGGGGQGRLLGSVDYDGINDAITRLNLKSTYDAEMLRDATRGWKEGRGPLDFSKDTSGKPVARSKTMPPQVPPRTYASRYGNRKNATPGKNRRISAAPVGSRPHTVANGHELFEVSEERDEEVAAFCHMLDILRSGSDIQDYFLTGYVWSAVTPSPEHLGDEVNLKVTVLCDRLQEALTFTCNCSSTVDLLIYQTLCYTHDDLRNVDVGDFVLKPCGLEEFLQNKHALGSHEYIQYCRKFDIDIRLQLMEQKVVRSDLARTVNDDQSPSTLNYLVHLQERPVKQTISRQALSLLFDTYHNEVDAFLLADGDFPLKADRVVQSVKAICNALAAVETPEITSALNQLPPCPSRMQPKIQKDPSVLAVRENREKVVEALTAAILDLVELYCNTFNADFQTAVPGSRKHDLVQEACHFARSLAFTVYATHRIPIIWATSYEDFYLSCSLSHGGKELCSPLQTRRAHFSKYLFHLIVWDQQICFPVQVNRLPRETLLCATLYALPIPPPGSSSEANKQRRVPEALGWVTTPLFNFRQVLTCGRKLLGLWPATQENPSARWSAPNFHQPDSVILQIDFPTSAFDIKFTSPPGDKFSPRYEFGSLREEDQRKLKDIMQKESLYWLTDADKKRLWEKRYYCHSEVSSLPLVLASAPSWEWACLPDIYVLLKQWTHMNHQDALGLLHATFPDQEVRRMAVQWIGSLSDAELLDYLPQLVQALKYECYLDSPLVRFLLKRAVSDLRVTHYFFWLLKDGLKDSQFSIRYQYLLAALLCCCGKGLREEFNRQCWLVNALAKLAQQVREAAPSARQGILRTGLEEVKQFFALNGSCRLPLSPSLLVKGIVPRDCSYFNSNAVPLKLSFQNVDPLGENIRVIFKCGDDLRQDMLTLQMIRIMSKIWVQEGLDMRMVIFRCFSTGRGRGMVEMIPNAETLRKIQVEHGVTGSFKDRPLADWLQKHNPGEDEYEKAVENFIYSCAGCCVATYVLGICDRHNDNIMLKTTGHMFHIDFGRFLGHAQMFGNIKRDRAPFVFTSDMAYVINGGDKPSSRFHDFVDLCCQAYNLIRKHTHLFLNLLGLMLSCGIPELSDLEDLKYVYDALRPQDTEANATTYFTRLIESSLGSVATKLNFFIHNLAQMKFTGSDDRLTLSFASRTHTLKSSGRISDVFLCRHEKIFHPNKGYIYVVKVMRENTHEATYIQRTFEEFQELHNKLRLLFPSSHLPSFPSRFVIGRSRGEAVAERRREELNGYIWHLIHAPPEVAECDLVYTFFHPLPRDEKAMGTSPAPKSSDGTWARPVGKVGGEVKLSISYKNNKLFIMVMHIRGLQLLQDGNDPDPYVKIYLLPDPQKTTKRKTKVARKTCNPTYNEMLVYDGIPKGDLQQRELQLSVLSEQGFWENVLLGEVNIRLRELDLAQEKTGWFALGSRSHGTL
Procedure: as §1

DYRK4 = DYRK4 (Homo sapiens, UniProt Q9NR20); experiment: SelectScreen kinase assay; format: biochemical
Chain of DYRK4 (Q9NR20 whole entry): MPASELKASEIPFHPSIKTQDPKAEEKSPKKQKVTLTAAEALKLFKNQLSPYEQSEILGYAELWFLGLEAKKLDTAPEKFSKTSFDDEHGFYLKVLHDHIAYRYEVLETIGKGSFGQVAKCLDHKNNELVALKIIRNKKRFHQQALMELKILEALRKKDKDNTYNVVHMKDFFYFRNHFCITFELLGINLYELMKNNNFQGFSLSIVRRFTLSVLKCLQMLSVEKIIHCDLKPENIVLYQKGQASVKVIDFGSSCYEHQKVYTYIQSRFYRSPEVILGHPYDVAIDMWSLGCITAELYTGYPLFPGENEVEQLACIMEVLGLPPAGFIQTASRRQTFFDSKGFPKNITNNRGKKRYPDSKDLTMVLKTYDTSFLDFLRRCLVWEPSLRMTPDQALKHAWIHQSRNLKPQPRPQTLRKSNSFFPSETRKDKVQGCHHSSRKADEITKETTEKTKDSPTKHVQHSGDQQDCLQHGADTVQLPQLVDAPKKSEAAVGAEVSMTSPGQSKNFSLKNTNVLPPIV

MKNK2 (MNK2) = MKNK2 (MNK2) (Homo sapiens, UniProt Q9HBH9); experiment: SelectScreen kinase assay
Chain of MKNK2 (MNK2) (Q9HBH9 whole entry, species assumed): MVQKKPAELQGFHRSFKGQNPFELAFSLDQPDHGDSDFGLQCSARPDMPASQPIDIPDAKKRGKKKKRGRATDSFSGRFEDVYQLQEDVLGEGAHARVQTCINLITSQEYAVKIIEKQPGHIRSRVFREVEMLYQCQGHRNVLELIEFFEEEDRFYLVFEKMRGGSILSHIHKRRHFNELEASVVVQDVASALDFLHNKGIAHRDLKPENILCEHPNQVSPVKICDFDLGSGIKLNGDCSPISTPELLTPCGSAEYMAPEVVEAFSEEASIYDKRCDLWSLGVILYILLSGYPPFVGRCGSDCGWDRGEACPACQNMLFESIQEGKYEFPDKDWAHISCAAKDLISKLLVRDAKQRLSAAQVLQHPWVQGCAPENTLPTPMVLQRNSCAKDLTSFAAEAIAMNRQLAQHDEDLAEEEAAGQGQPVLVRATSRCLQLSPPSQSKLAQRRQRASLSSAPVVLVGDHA
Procedure: as §1

endogenous FES^S700C = endogenous FES^S700C (Homo sapiens, UniProt P07332, S700C); experiment: Gel-based target engagement in HL-60 neutrophils
Chain of endogenous FES^S700C (P07332 whole entry S700C): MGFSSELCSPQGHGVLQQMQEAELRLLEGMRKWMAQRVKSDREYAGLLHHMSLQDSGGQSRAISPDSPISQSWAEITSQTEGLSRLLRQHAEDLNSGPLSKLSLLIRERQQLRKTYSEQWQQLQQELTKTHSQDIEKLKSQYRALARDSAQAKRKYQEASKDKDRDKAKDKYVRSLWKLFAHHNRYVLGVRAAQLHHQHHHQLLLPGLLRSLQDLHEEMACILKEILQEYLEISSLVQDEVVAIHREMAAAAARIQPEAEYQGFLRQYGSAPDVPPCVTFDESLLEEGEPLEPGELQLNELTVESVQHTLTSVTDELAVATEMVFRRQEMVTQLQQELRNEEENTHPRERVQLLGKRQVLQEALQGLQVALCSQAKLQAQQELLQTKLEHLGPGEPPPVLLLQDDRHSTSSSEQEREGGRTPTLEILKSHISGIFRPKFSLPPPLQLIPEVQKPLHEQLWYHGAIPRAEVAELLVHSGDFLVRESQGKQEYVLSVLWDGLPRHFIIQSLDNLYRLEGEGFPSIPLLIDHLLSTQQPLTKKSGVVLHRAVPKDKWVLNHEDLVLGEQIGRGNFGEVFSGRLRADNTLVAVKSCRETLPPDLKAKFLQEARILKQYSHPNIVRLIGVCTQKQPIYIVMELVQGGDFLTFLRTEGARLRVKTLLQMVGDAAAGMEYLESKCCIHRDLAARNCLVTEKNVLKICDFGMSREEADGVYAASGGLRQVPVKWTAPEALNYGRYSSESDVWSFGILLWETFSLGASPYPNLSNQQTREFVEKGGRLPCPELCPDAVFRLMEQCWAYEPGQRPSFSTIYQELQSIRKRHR
Procedure: Data represent means ± SEM.
The term in situ is used to designate experiments in which live cell cultures are treated with inhibitor, whereas the term in vitro refers to experiments in which the inhibitor is incubated with cell lysates. Compounds were diluted in growth medium from a 1000x concentrated stock solution in DMSO. […] After 48 h, cells were treated with compound for 1 h. Cells were collected by suspension in PBS and centrifuged (1000g, 5 min, rt). Pellets were flash-frozen in liquid nitrogen and stored at −80 °C until use. For in situ treatment post-differentiation, HL-60 cells were differentiated as described above and incubated with compound for 1 h unless specified otherwise. Cells were collected by suspension for non-adherent cells and trypsinization for adherent cells. After collection, cells were centrifuged (200g, 5 min, rt) and washed in equal volume of PBS (1000g, 5 min, rt). Cell pellets were flash-frozen in liquid nitrogen and stored at −80 °C until use.

ERBB2 (HER2) = ERBB2 (HER2) (Homo sapiens, UniProt P04626); experiment: SelectScreen kinase assay; details: for Inhibition at 1 µM (%): ERBB2 (HER2), ZLYTE, ATP Km app
Chain of ERBB2 (HER2) (P04626 23-1255): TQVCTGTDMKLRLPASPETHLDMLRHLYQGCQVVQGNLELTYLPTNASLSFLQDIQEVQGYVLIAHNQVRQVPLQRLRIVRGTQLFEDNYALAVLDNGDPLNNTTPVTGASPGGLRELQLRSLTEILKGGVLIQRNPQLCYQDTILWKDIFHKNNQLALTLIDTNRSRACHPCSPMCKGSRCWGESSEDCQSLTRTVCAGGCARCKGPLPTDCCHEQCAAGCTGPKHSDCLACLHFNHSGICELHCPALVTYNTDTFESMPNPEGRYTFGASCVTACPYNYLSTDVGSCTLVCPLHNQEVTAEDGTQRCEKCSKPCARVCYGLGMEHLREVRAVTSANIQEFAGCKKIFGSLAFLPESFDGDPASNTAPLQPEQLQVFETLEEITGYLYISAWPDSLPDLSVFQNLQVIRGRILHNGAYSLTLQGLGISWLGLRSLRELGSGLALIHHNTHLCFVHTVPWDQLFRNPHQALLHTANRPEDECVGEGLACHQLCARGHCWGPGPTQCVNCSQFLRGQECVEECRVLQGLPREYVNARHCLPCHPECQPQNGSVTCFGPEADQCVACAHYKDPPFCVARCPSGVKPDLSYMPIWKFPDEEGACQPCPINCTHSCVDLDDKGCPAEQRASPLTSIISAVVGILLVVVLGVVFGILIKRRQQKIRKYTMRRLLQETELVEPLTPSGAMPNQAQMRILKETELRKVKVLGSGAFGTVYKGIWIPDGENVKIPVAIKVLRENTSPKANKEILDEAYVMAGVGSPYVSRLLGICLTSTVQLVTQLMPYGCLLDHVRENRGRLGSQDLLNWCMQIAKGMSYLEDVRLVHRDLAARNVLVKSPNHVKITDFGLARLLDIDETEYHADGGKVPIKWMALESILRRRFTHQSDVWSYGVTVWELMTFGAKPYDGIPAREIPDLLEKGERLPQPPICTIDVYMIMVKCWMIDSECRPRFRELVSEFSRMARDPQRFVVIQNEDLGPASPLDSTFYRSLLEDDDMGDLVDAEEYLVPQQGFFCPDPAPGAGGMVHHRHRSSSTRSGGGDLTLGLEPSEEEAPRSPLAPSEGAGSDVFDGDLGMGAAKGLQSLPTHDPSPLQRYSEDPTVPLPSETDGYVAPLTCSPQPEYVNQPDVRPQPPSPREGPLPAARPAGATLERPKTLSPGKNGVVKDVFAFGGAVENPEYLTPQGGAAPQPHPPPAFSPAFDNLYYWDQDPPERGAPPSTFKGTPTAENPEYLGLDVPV
Procedure: as §1

AURKC (Aurora C) = target: T2, AURKC (Aurora C) (Homo sapiens, UniProt Q9UQB9); experiment: SelectScreen kinase assay
T2 sequence (Q9UQB9 1-309): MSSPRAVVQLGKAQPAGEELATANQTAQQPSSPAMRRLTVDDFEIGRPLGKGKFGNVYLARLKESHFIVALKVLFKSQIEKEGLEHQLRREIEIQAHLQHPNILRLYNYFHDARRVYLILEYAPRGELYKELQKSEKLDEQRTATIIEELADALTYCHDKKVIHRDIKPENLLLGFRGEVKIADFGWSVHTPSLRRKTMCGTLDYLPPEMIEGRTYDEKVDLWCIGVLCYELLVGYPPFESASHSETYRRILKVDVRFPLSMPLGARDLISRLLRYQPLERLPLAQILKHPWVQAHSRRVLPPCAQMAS
Procedure: as §1

MAPK14 (p38 alpha) = MAPK14 (p38 alpha) (Homo sapiens, UniProt Q16539); experiment: SelectScreen kinase assay
Chain of MAPK14 (p38 alpha) (Q16539 whole entry): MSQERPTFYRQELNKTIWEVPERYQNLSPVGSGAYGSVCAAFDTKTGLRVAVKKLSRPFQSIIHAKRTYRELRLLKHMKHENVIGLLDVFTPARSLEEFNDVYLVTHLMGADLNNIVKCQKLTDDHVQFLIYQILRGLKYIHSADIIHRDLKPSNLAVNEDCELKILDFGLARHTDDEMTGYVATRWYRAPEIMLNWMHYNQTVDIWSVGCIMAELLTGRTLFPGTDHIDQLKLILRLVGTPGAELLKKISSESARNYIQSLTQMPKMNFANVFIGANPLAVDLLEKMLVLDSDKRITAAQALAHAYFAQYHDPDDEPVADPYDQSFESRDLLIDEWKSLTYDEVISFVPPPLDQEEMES
Procedure: as §1

[1] = 1 h, 1 μM WEL028, 1 h preincubation
[2] = IC50 on that kinase divided by IC50 on FES^S700C

Compound: C#CCOc1ccc(Nc2ncc(Cl)c(Nc3ccccc3NC(=O)C=C)n2)c(OC)c1 [Compound 6]
- pIC50 (GAK): 7.90
- inhibition at 1 µM (GAK; [1]): 108%
- Inhibition at 1 µM (%) (GAK; GAK, 1 µM, LanthaScreen Binding, listed as WEL028, 1 µM): 109%
- Apparent fold selectivity (GAK; [2]): 3 fold
- inhibition at 1 µM (GAK; read-out: Inhibition at 1 µM (%), GAK, 1 µM, LanthaScreen Binding): 108%
- inhibition at 1 µM (PIK3C2B (PI3K-C2 beta); 1 h): -1%
- inhibition at 1 µM (PIK3C2B (PI3K-C2 beta); read-out: Inhibition at 1 µM (%)): -1%
- inhibition at 1 µM (DYRK4; [1]): 0%
- Inhibition at 1 µM (%) (DYRK4; DYRK4, 1 µM, ZLYTE, ATP Km app, listed as WEL028, 1 µM): -4% and 4%
- pIC50 (MKNK2 (MNK2)): 7.00
- inhibition at 1 µM (MKNK2 (MNK2); [1]): 93%
- inhibition at 10 µM (MKNK2 (MNK2); 1 h, log[inhibitor] (M) -5.00, LanthaScreen Binding): 83%
- inhibition at 3.311 µM (MKNK2 (MNK2); 1 h, log[inhibitor] (M) -5.48, LanthaScreen Binding): 97%
- inhibition at 1.122 µM (MKNK2 (MNK2); 1 h, log[inhibitor] (M) -5.95, LanthaScreen Binding): 94%
- inhibition at 0.3715 µM (MKNK2 (MNK2); 1 h, log[inhibitor] (M) -6.43, LanthaScreen Binding): 82%
- inhibition at 0.123 µM (MKNK2 (MNK2); 1 h, log[inhibitor] (M) -6.91, LanthaScreen Binding): 54%
- inhibition at 0.0138 µM (MKNK2 (MNK2); 1 h, log[inhibitor] (M) -7.86, LanthaScreen Binding): 13%
- inhibition at 0.0004898 µM (MKNK2 (MNK2); 1 h, log[inhibitor] (M) -9.31, LanthaScreen Binding): 4%
- Apparent fold selectivity (MKNK2 (MNK2); [2]): 23 fold
- Inhibition at 1 µM (%) (MKNK2 (MNK2); MKNK2 (MNK2), 1 µM, LanthaScreen Binding, listed as WEL028, 1 µM): 96%
- inhibition at 1 µM (MKNK2 (MNK2); read-out: Inhibition at 1 µM (%), MKNK2 (MNK2), 1 µM, LanthaScreen Binding): 89%
- Inhibition of FES in live neutrophils (endogenous FES^S700C; 100 nM, 1 h): complete and selective inhibition of FES
- Relative FES labeling (%) (endogenous FES^S700C; Figure 7b, replicates, listed as WEL028): 9.291% and 9.41% and 8.966%
- inhibition at 1 µM (ERBB2 (HER2); [1]): 2%
- Inhibition at 1 µM (%) (ERBB2 (HER2)): -2%
- Inhibition at 1 µM (%) (ERBB2 (HER2); listed as WEL028, 1 µM): 6%
- inhibition at 1 µM (AURKC (Aurora C); [1]): 37%
- Inhibition at 1 µM (%) (AURKC (Aurora C); AURKC (Aurora C), 1 µM, ZLYTE, ATP Km app, listed as WEL028, 1 µM): 41%
- inhibition at 1 µM (AURKC (Aurora C); read-out: Inhibition at 1 µM (%), AURKC (Aurora C), 1 µM, ZLYTE, ATP Km app): 33%
- Inhibition (%) (MAPK14 (p38 alpha); 1 μM WEL028, 1 h preincubation): 7%
- Inhibition at 1 µM (%) (MAPK14 (p38 alpha); MAPK14 (p38 alpha) Direct, 1 µM, ZLYTE, ATP Km app, listed as WEL028, 1 µM): 4% and 10%
